{
  "source": "paper PMC5302928",
  "about": "“[^64Cu]XYIMSR-06: A dual-motif CAIX ligand for PET imaging of clear cell renal cell carcinoma” (Oncotarget, 2016)",
  "tested_on": "CAIX-expressing SK-RC-52 ccRCC tumor xenografts",
  "assay": "Biodistribution of [Al18F]XYIMSR-04 in mice bearing SK-RC-52 xenografts",
  "format": "in vivo",
  "conditions": "1 h",
  "experimental": "The resulting Mice bearing SK-RC-52 xenografts within the solution was heated at 110 °C for 30 min. 0.6 mg of lower left flank were injected intravenously with 740 [Al19F]XYIMSR-04 was obtained as white crystal, after kBq (20 μCi) of [Al18F]XYIMSR-04 in 200 μL of PBS.\nHPLC purification. Yield is 61 %. HPLC condition: At specific 1 hour time point mentioned in the paper, column Phenomenex, Luna 10 x 250 mm, 10 µ. 20/80/ mice (n = 5) were sacrificed by cervical dislocation and TFA MeCN/H O/TFA, flow 4 mL/min. Product was the blood was immediately collected by cardiac puncture. […]\neluded at 35.5 min. MS, calculated for C H AlFN N Heart, lungs, pancreas, spleen, fat, brain, muscle, small […]\naO S [M+Na] : 1426.4759; Found: 1426.4777. intestines, liver, bone, stomach, kidney, urinary bladder, […]\nand tumor were collected. Each organ was weighed and Radiosynthesis the tissue radioactivity was measured with an automated gamma counter (1282 Compugamma CS, Pharmacia/\nFor convenience, Na18F in saline purchased from LKBNuclear, Inc., Mt. Waverly, Vic. Australia). The PETNET (Hackensack, NJ) was directly applied with to percentage of injected dose per gram of tissue (% ID/g) the synthesis with a slightly modified protocol (2). Due to was calculated by comparison with samples of a standard […]\nreaction condition. corrected for radioactive decay.\nRadiosynthesis of [Al18F]XYIMSR-04. 400μg of Data were expressed as mean ± standard deviation XYIMSR-04 in 200 μL water/Ethanol 1:1 was added to (SD). Prism software (GraphPAD, San Diego, California) 1 mL of Na18F in 0.9% saline containing 4.6-14.0 mCi was used to determine statistical significance. Statistical activity. To this mixture, 20 μL of 2 mM AlCl3/NaOAc significance was calculated using a paired t test. P-values solution and 200 μL of ethanol were added. The reaction < 0.0001 were considered significant. was kept at 105 °C for 20 min, then diluted to 2.0 mL The biodistribution data at 1 h is shown below. with water and loaded onto a preparative HPLC column The tumor uptake is 14.40%ID/g, with tumor-to –blood, for purification. Retention times for the radiolabeled -muscle and –kidney of 22.1, 9.74 and 0.28. compound, [Al18F]XYIMSR-04, and starting material, XYIMSR-04, were optimized to the point of baseline Imaging separation, with [Al18F]XYIMSR-04 eluting first.\n[Al18F]XYIMSR-04 was obtained a radiochemical yield Mice harboring subcutaneous SK-RC-52 tumors of 4.3% (n=3) in specific radioactivity of 57-92 Ci/mmol with the lower left flank were injected with 7.4 MBq (200 in 1 hour. HPLC conditions: Phenomenex, Luna 10 x 250 μCi) of [Al18F]XYIMSR-04 in 250 µL of PBS (pH = 7.0) mm, 10μ. 20/80/0.1 MeCN/H2O/TFA, flow 4 mL/min. intravenously (tail vein). Anesthesia was then induced Product eluted at 35.5 min, while starting material eluted with 3% isofluorane and maintained at 2% isoflurane. […]\n(also on this page, place not known: www.impactjournals.com/oncotarget/ Oncotarget, Supplementary Materials 2016 ([Al19F]XYIMSR-04). AlCl 3 2O/TFA, 57H79AlFN15N aO20S2 +: Na 18F [Al 18F]XYIMSR-04. XYIMSR-04 Na 18F AlCl 3/NaOAc [Al 18F]XYIMSR-04, [Al 18F]XYIMSR-04 MeCN/H 2O/TFA, [Al 19F]XYIMSR-04 [Al 18F]XYIMSR-04) […]",
  "note": "Values joined by “and” are separate entries in the source; they are usually repeats but may differ in a detail not shown here. Equal entries are not always repeated.",
  "data": [
    {"compound": "CC(CCC(=O)N[C@@H](CC(=O)N[C@@H](CC(=O)N[C@@H](CCCCn1cc(CCCC(=O)Nc2nnc(S(N)(=O)=O)s2)nn1)C(=O)NCCOCCOCCNC(=O)CN1CCN2CCN(CC1)CC(=O)[O][Al]([18F])[O]C(=O)C2)C(=O)O)C(=O)O)(c1ccc(O)cc1)c1ccc(O)cc1", "note": "[[Al^18F]XYIMSR-04]", "values": [
      {"measurement": "Bladder uptake", "result": "20.12 ± 12.51", "unit": "%ID/g"},
      {"measurement": "Blood uptake", "result": "0.65 ± 0.11", "unit": "%ID/g"},
      {"measurement": "Bone uptake", "result": "1.91 ± 1.39", "unit": "%ID/g"},
      {"measurement": "Brain uptake", "result": "0.66 ± 0.04", "unit": "%ID/g"},
      {"measurement": "Fat uptake", "result": "1.54 ± 0.25", "unit": "%ID/g"},
      {"measurement": "Heart uptake", "result": "5.03 ± 0.51", "unit": "%ID/g"},
      {"measurement": "Kidney (kid) uptake", "result": "50.84 ± 2.65", "unit": "%ID/g"},
      {"measurement": "Liver uptake", "result": "5.55 ± 0.91", "unit": "%ID/g"},
      {"measurement": "Lung uptake", "result": "34.07 ± 5.85", "unit": "%ID/g"},
      {"measurement": "Muscle (mm) uptake", "result": "1.74 ± 0.58", "unit": "%ID/g"},
      {"measurement": "Pancreas uptake", "result": "3.47 ± 0.16", "unit": "%ID/g"},
      {"measurement": "Sm. intestine uptake", "result": "9.59 ± 1.04", "unit": "%ID/g"},
      {"measurement": "Spleen uptake", "result": "0.54 ± 0.18", "unit": "%ID/g"},
      {"measurement": "Stomach uptake", "result": "21.62 ± 1.85", "unit": "%ID/g"},
      {"measurement": "Tumor uptake", "result": "14.4 ± 2.2", "unit": "%ID/g"},
      {"measurement": "Tumor/kid (kidney) ratio", "result": "0.28 ± 0.03"},
      {"measurement": "Tumor/mm (muscle) ratio", "result": "9.7 ± 2.9"},
      {"measurement": "Tumor/Blood ratio", "setting": "listed as [Al18F]XYIMSR-04", "result": "22.1 and 22.1 ± 1.5"},
      {"measurement": "Tumor/kid (kidney) ratio", "setting": "listed as [Al18F]XYIMSR-04", "result": 0.28},
      {"measurement": "Tumor/mm (muscle) ratio", "setting": "listed as [Al18F]XYIMSR-04", "result": 9.74}
    ]}
  ]
}
